# Experimental data as given in patent US11478433B2, “Nanomaterials with enhanced drug delivery efficiency” (Yale University, priority 2017, dated 2022).
# Tests used:
# [1] = in vivo, cited from earlier work
# [2] = Penetration through GI tract after oral gavage (IVIS, confocal microscopy)
# Experimental: DTA SNPs encapsulating a near-infrared fluorescent dye, IR780, were prepared and administered to mice via oral gavage. After one hour, the GI tract was isolated, extensively washed, and imaged by IVIS®.
# MDA-MB-231 tumors = assay: Oral treatment of mice bearing MDA-MB-231 tumors; assay type: in vivo; conditions: twice a week
# Experimental: The therapeutic benefit of PTX-loaded DTX SNPs was evaluated for treatment of […]. Mice bearing MDA-MB-231 tumors of ˜50 mm^3 size were treated twice a week with orally injected saline (as a control), empty DTA SNPs, free PTX, or PTX-loaded DTX SNPs (denoted as PTX-SNPs). Tumor volumes were measured three times a week. Mice were euthanized when tumor volume reached ˜1000 mm^3, at which point the tumors were excised and fixed in formalin for immunohistochemistry. Serial sections were obtained and stained with TUNEL for analysis of cellular apoptosis. The growth curve was plotted using the mean of the tumor volumes for each treatment group, at each time point.
# [3] = tested on: human breast cancer MDA-MB-231 cells; assay: Toxicity on breast cancer cells in vitro; assay type: cell-based
# Experimental: FIG. 7 is a line graph showing the percentage of growth (%) of human breast cancer MDA-MB-231 cells over different concentrations (μg/mL) of different samples: PTX, DTA SNPs (denoted in this graph as SNPs), PTX-encapsulated DTA SNPs (denoted as PTX-SNPs).
# Human breast adenocarcinoma cell line, MDA-MB-231 cells, were purchased from American Type Culture Collection (ATCC, Rockville, Md., USA). Cells were grown in DMEM medium (Invitrogen) supplemented with 10% fetal bovine serum (FBS, Invitrogen), 100 units/mL penicillin, and 100 µg/mL streptomycin (Invitrogen) in a 37° C. incubator containing 5% CO2.
# [4] = tested on: MDA-MB-231 flank tumor model; assay: Intravenous treatment of flank tumor model with PTX-loaded OA SNPs; assay type: in vivo; conditions: over 30 days following treatment
# Experimental: Next, drug delivery via encapsulation in OA SNPs was assayed in treating the flank tumor model.
molecule,measurement,setting,value
"C[C@@H]1CC[C@H]2[C@@H](C)C(=O)O[C@@H]3O[C@@]4(C)CC[C@@H]1[C@]32OO4 [Artemisinin, artemisinin]",bioavailability,[1],less than 10%
CCCN1/C(=C/C=C2\CCCC(/C=C/C3=[N+](CCC)c4ccccc4C3(C)C)=C2Cl)C(C)(C)c2ccccc21.[I-] [IR780],location in GI tract,"[2]; one hour after oral gavage, IR780, IVIS imaging",located mostly in the stomach
"CC(=O)O[C@H]1C(=O)[C@@]2(C)[C@H]([C@H](OC(=O)c3ccccc3)[C@]3(O)C[C@H](OC(=O)[C@H](O)[C@@H](NC(=O)c4ccccc4)c4ccccc4)C(C)=C1C3(C)C)[C@]1(OC(C)=O)CO[C@@H]1C[C@@H]2O [PTX, paclitaxel]",reduction of tumor volumes compared to saline control,MDA-MB-231 tumors,21%
same,toxicity on MDA-MB-231 cells,[3],comparable toxicity
same,oral bioavailability,[1]; po,less than 2%
same,tumor volume / tumor growth,[4],grew substantially
CCN(CC)c1ccc2c(-c3ccccc3C(=O)O)c3ccc(=[N+](CC)CC)cc-3oc2c1.[Cl-] [rhodamine B],fluorescence in intestinal villi,"[2]; oral administration, confocal microscopy",limited fluorescence
GLP-1,half-life in the circulatory system,[1],< 2 min
